pKd: −log10 of the molar value. Several values for one entry are separate records, joined by “and”; a condition that tells them apart may be missing. Equal entries are not always repeated. Entries after “also recorded” stand apart in the source; their conditions may differ. Where two headings read alike, the source gives them in different places. One block for each compound: values may come before it.
Experiments:
[1] = biological target: recombinant human galectin-1 (Homo sapiens, UniProt P09382); experiment: SPR (BIAcore) equilibrium binding to immobilized galectin-1; parameters: key to Galectin-1 binding, KD: NB: non-binder; conditions: for binding to galectin-1 (in words): SPR assay
Chain of recombinant human galectin-1 (P09382 whole entry): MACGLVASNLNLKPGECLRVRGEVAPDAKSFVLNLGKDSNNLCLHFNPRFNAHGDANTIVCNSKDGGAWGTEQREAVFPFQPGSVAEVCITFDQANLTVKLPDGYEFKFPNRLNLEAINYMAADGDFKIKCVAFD
Method: (§1) Galectin binding affinity measurements were performed in a surface plasmon resonance (SPR) assay using […] instrument (BIAcore, Inc, Uppsala, Sweden). PBS with 5 mM β-mercaptoethanol was used as running buffer for all experiments. Purified recombinant human galectin-1 and galectin-4 were immobilized at different surface densities on CM5 carboxymethyldextran chip (BIAcore) in the presence of 150 mM lactose, using standard amine coupling chemistry. Galectin immobilization was performed at 5 μl/min flow rate. To ensure the maximum possible immobilization of recombinant proteins, carboxylmethyldextran surface was activated with a 15 min pulse of a mixture of 0.05 M N-hydroxysuccinimide (NHS) with 0.2 M N-ethyl-N′-(dimethylaminopropyl) carbodiimide (EDC). Recombinant galectins, diluted to 30 μg/ml in 10 mM Na Acetate buffer (pH 4.8 for galectin-1 and pH 5.5 for galectin-4) were coupled to the surface during a 15-minute injection. Following galectin injection, remaining activated groups on the surface of the chip were deactivated with a 7 min pulse of 1 M ethanolamine hydrochloride, pH 8.5. Blank, unmodified CM5 surface was used as a negative control for the corrections for refractive index changes due to the presence of lactulosamines.
(§2) Binding of lactulosamines was performed at 80 μl/min flow rate, with injection times of 15 sec. […] Instead, the equilibrium binding levels were examined and determined the equilibrium binding constant using steady state affinity fitting model (BIAevaluation software version 3.1).

[2] = biological target: T1, recombinant human galectin-4 (Homo sapiens, UniProt P56470); experiment: SPR (BIAcore) equilibrium binding to immobilized galectin-4; parameters: key to Galectin-4 binding, KD: NB: non-binder; conditions: for binding to galectin-4 (in words): SPR assay
T1 construct: cDNA encoding full-length human galectin-4 was amplified from an EST clone; made in house; host or cells: E. coli BL21 (DE3)pLysS
T1 sequence (P56470 1-323): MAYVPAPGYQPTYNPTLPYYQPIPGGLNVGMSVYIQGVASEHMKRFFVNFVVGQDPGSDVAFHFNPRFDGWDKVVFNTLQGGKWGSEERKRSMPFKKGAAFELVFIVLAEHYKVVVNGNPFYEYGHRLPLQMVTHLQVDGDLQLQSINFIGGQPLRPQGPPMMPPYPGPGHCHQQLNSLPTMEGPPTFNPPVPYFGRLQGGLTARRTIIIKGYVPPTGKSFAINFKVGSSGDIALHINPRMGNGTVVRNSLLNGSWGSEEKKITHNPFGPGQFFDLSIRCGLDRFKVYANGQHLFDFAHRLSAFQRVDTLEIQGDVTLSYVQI
Method: as §1, §2

[3] = biological target: galectin-1 binding to laminin (Homo sapiens, UniProt P09382); experiment: ELISA, inhibition of galectin-1 binding to immobilized laminin; conditions: for inhibition of galectin-1 binding to laminin (in words): ELISA, FIG. 9B; for inhibition of binding of galectin-1 to laminin: at 156 μM, galectin-1 2.5 μg/ml (0.17 μM)
Chain of galectin-1 binding to laminin (P09382 2-135 limits assumed): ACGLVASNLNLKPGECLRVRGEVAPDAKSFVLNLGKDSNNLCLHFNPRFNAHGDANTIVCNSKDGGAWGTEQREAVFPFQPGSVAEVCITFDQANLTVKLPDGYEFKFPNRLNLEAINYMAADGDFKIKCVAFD
Method: (§3) Human 90K/MAC-2BP (thereafter called 90K) was purified from transfected EBNA-293 cells (lurisci, I., et al., Clin. Cancer Res. (2000) 6:1389-1393). Laminin was obtained from Boehringer Mannheim GmbH (Germany). The ELISA for galectin binding has been previously described (Tinari, N., et al., Int. J. Cancer (2001) 91:167-172). Briefly, Nunc Maxisorb microtiter wells were coated with 0.5 μg/well of 90K or laminin. Recombinant galectin-1 (2.5 μg/ml or 0.17 μM) was diluted in PBS with 0.1% Tween-20 and added to wells coated with glycoproteins, and galectin-1 binding was detected with anti-galectin-1 rabbit antiserum. In binding-inhibition experiments, recombinant galectin-1 was diluted in PBS-0.1% Tween-20 containing indicated concentration of lactulosamines or lactose.

N202.1A tumor cells = experiment: N202.1A tumor growth in Neu mice; type: in vivo; conditions: 100 μl of 100 μM daily combined with dendritic cell therapy, 25 days, FIG. 11, listed as L2hmda
Method: Neu mice were inoculated on Day 0 with 10^6 N202.1A tumor cells. The animals were divided into four groups of four mice each. On Day 7, groups 2 and 4 were subjected to dendritic cell therapy which involved immunization with 10^6 dendritic cells pulsed with apoptotic N202.1A cells and intraperitoneal injections of recombinant IL-2 (10^4 1.U./injection) from Day 10 to […]. Groups 3 and 4 received injections of 100 μl of 100 μM L2hmda daily.

CD8+ CTL clone [4] = experiment: Cytokine production by CD8+ CTL clone after TF peptide stimulation, with galectin-1 and inhibitor; type: cell-based
Method: Treatment in vitro of CD4+ and CD8+T cells with recombinant soluble galectin-1 inhibits their survival and ability to secrete cytokine, such as interferon-γ and IL-2. […] In FIG. 10A, cells are stimulated by TF peptide and the levels of interferon-γ produced measured in nanogram/milliliter (ng/ml). As shown, galectin-1 inhibits interferon-γ secretion in a dose-dependent manner. […] Similar data were seen when another cytokine, IL-2, was measured (not shown).

[5] = biological target: galectin-1 binding to 90K/MAC-2BP (Homo sapiens, UniProt P09382); experiment: ELISA, inhibition of galectin-1 binding to immobilized 90K; conditions: for inhibition of galectin-1 binding to 90K (in words): ELISA, FIG. 9A; for inhibition of binding of galectin-1 to 90K: at 156 μM, galectin-1 2.5 μg/ml (0.17 μM)
Chain of galectin-1 binding to 90K/MAC-2BP (P09382 2-135 limits assumed): as above
Method: as §3

CD8+ CTL clone [6] = experiment: CD8+ CTL clone survival after TF peptide stimulation, with galectin-1 and inhibitors; type: cell-based; conditions: for prevention of cell death induced by galectin-1: 4 days, FIG. 10B; for restoring the ability of CTL's to proliferate: in presence of galectin-1, FIG. 10B
Text: The ability of L2hmda to restore this activity is especially significant since TDG, a known galectin inhibitor, is toxic. However, L2hmda is not toxic. […] The CD8+ CTL clone was stimulated with TF peptide for 4 days and cell survival (% of starting number) measured by enumerating viability by trypan blue exclusion.

cancer cells = conditions: cited from earlier work
breast cancer cells = conditions: nude mouse model; cited from earlier work
[7] = Toxicity statement on galectin inhibitors
[8] = SPR steady state affinity fit, Table I, read-out: Galectin-1 binding, KD
[9] = SPR steady state affinity fit, Table I, read-out: Galectin-4 binding, KD
[10] = SPR steady-state analysis, read-out: KD value for galectin-1
[11] = SPR, full-length galectin-4 with two binding domains, read-out: KD for galectin-4
[12] = SPR steady state affinity fit, Table I

pKd [1, 8]: 3.88
pKd [2, 9]: 3.00
Compound: CC(NCC(=O)C(O)C(OC1OC(CO)C(O)C(O)C1O)C(O)CO)C(=O)O [Lactulose-D-alanine]

Compound: OCC1OC(OC2C(O)COC(O)(CNCCCCCCNCC3(O)OCC(O)C(OC4OC(CO)C(O)C(O)C4O)C3O)C2O)C(O)C(O)C1O (stereo not drawn) [Dilactulose-hexamethylenediamine, dilactulose-hexamethylenediamine]
half-life, weighted average of the two components of dissociation rate [1]: 7 s
binding to galectin-1 (in words) [1]: superior in binding
binding to galectin-1 (in words) ([1]; listed as L2hmda): significantly stronger
pKd [1, 10]: ~5.82
half-life, fast component ([1]; corresponding to fast koff): 3 s
half-life, slow component ([1]; corresponding to slow koff): 19 s
koff, fast component ([1]; two-component dissociation model, fast component 40% of overall rate): 0.16 to 0.2 s⁻¹
koff, slow component ([1]; two-component dissociation model, slow component 60% of overall rate): 0.036 s⁻¹
inhibition of galectin-1 binding to laminin (in words) [3]: most potent inhibitor
inhibition of binding of galectin-1 to laminin [3]: about 70%
tumor volume (N202.1A tumor cells): superior to treatment with either alone; also recorded: very little tumor volume enhancement
restoration of interferon secretion (CD8+ CTL clone [4]; galectin-1 7 μM, L2hmda 200 μM, FIG. 10C): restores the interferon 7 secretion to normal
galectin-1 mediated suppression of IFN-γ production by the CTL (CD8+ CTL clone [4]; increasing concentrations (50-200 uM) of inhibitor): completely prevented
inhibition of galectin-1 binding to 90K (in words) [5]: most potent inhibitor
inhibition of binding of galectin-1 to 90K [5]: about 80%
prevention of cell death induced by galectin-1 (CD8+ CTL clone [6]; trypan blue exclusion): prevented the majority of cell death
restoring the ability of CTL's to proliferate (CD8+ CTL clone [6]): able to restore
binding to galectin-4 (in words) [2]: superior in binding
pKd [2, 9]: 4.11 and 4.08 and 3.98 and 3.94
pKd [2, 11]: ~4.10

pKd [1, 8]: 3.99
inhibition of binding of galectin-1 to laminin [3]: ~10%
inhibition of binding of galectin-1 to 90K [5]: about 20%
pKd [2, 9]: 3.10
Compound: O=C(O)CNCC(=O)C(O)C(OC1OC(CO)C(O)C(O)C1O)C(O)CO (stereo not drawn) [Lactulose-glycine]

binding to galectin-1 (in words) [1]: could bind
pKd [1, 8]: 3.95 and 3.70
pKd [1, 10]: ~3.96
inhibition of binding of galectin-1 to laminin [3]: ~40%
inhibition of binding of galectin-1 to 90K [5]: about 50%
pKd [2, 9]: 3.30 and 3.10 and 3.00
pKd [2, 11]: ~3.10
Compound: CC(C)CC(NCC(=O)C(O)C(OC1OC(CO)C(O)C(O)C1O)C(O)CO)C(=O)O [Lactulose-L-leucine, lactulose-L-leucine]
adhesion of cancer cells to endothelium (cancer cells): blocks
clonogenic growth and metastasis of breast cancer cells (breast cancer cells): block

pKd [1, 8]: 3.89
pKd [2, 9]: 3.26
Compound: CCC(C)C(NCC(=O)C(O)C(OC1OC(CO)C(O)C(O)C1O)C(O)CO)C(=O)O [Lactulose-L-isoleucine]

Compound: CSCCC(NCC(=O)C(O)C(OC1OC(CO)C(O)C(O)C1O)C(O)CO)C(=O)O [Lactulose-L-methionine]
pKd [1, 8]: 3.90
pKd [2, 9]: 2.90

pKd [1, 8]: 4.15
inhibition of binding of galectin-1 to laminin [3]: ~40%
inhibition of binding of galectin-1 to 90K [5]: about 50%
pKd [2, 9]: 3.28
Compound: O=C(CN1CCCC1C(=O)O)C(O)C(OC1OC(CO)C(O)C(O)C1O)C(O)CO [Lactulose-L-proline]

Compound: galectin-1: recombinant soluble galectin-1, immunosuppressive lectin added to T cells
IFN-γ production (ELISA) (CD8+ CTL clone [4]; supernatants 48 hr after stimulation, galectin-1 0-7 uM): suppressed in a dose dependent fashion
death of T cells (CD8+ CTL clone [6]; over the 4 day period, trypan blue exclusion): 90%

binding to galectin-1 (in words) [1]: unable to bind
Galectin-1 binding, KD [1, 12]: NB
binding to galectin-4 (in words) [2]: unable to bind
Galectin-4 binding, KD [2, 12]: NB
Compound: OC[C@H]1O[C@@](CO)(O[C@H]2O[C@H](CO)[C@@H](O)[C@H](O)[C@H]2O)[C@@H](O)[C@@H]1O [Sucrose, reference compound]

Compound: fructose-D-leucine
binding to galectin-1 (in words) [1]: did not
binding to galectin-1 (in words) ([1]; listed as fructose coupled to leucine): unable to bind
Galectin-1 binding, KD [1, 12]: NB
binding to galectin-4 (in words) [2]: unable to bind
Galectin-4 binding, KD [2, 12]: NB

pKd [1, 8]: 3.42
pKd [2, 9]: 2.42
Compound: CC(O)C(NCC(=O)C(O)C(OC1OC(CO)C(O)C(O)C1O)C(O)CO)C(=O)O [Lactulose-L-threonine]

Compound: O=C(O)C(Cc1c[nH]cn1)NCC(=O)C(O)C(OC1OC(CO)C(O)C(O)C1O)C(O)CO [Lactulose-L-histidine]
pKd [1, 8]: 3.72
pKd [2, 9]: 2.64

binding to galectin-1 (in words) [1]: able to bind
inhibition of galectin-1 binding to laminin (in words) [3]: inhibited
inhibition of binding of galectin-1 to laminin [3]: ~10%
inhibition of galectin-1 binding to 90K (in words) [5]: inhibited
inhibition of binding of galectin-1 to 90K [5]: about 20%
binding to galectin-4 (in words) [2]: able to bind
Compound: OC[C@H]1O[C@@H](O[C@H]2[C@H](O)[C@@H](O)[C@H](O)O[C@@H]2CO)[C@H](O)[C@@H](O)[C@H]1O [β-lactose, reference compound]

pKd [1, 8]: 3.80
pKd [2, 9]: 3.14
Compound: CC(C)C(NCC(=O)C(O)C(OC1OC(CO)C(O)C(O)C1O)C(O)CO)C(=O)O [Lactulose-L-valine]

binding to galectin-1 (in words) [1]: unable to bind
Galectin-1 binding, KD [1, 12]: NB
binding to galectin-4 (in words) [2]: unable to bind
Galectin-4 binding, KD [2, 12]: NB
Compound: OC[C@H]1O[C@H](O[C@H]2[C@H](O)[C@@H](O)[C@H](O)O[C@@H]2CO)[C@H](O)[C@@H](O)[C@@H]1O [Maltose, reference compound]

pKd [1, 8]: 3.82
pKd [2, 9]: 2.83 and 2.76
Compound: CC(NCC(=O)C(O)C(OC1OC(CO)C(O)C(O)C1O)C(O)CO)C(=O)O [Lactulose-L-alanine]

pKd [1, 8]: 3.70
pKd [2, 9]: 2.96 and 2.90
Compound: O=C(O)C(Cc1ccccc1)NCC(=O)C(O)C(OC1OC(CO)C(O)C(O)C1O)C(O)CO [Lactulose-L-phenylalanine]

pKd [1, 8]: 3.97
pKd [2, 9]: 2.98
Compound: O=C(O)CCCNCC(=O)C(O)C(OC1OC(CO)C(O)C(O)C1O)C(O)CO [Lactulose-L-GABA]

Compound: OC[C@H]1O[C@@H](S[C@@H]2O[C@H](CO)[C@H](O)[C@H](O)[C@H]2O)[C@H](O)[C@@H](O)[C@H]1O [TDG, thiodigalactolate, reference compound]
toxicity [7]: toxic
prevention of cell death induced by galectin-1 (CD8+ CTL clone [6]; trypan blue exclusion): prevented the majority of cell death
restoring the ability of CTL's to proliferate (CD8+ CTL clone [6]): able to restore

pKd [1, 8]: 3.89 and 3.65
pKd [2, 9]: 3.11 and 3.06 and 2.96
Compound: CC(C)CC(NCC(=O)C(O)C(OC1OC(CO)C(O)C(O)C1O)C(O)CO)C(=O)O [Lactulose-D-leucine]

— patent US20070167405A1, “Galectins -1 and -4 in tumor development” (priority 2001, published 2007)
